Measurements from US11000033B2, “Ketone or oxime compound, and herbicide” (NISSAN CHEMICAL CORPORATION, priority 2014, dated 2021).

Assays:
Type in all cases: in vivo
[1] = system: soybean; test: Test Example 5: effect on crop by foliage application, plastic box (symbol d); settings: 320 g/ha, 3 weeks after application
Method in brief: (§1)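 In a plastic box 7 cm deep filled with sterilized diluvial soil, seeds of crops and weeds such as Digitaria ciliaris, Avena fatua and Amaranthus retroflexus are sown in spots and covered with about 1.5 cm of soil before greenhouse growth at 25–30° C.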

[2] = system: Amaranthus retroflexus; test: Test Example 5: herbicidal effect by foliage application, plastic box (symbol N); settings: 320 g/ha, 3 weeks after application
Method in brief: (§2)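 Emulsion formulation, diluted with water to the intended rate, was applied uniformly to leaves by small sprayer. Recipients were 14-day greenhouse-grown seedlings (25° C. to 30° C.). Assessment followed at 3 weeks.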

[3] = system: beet; test: Test Example 5: effect on crop by foliage application, plastic box (symbol f); settings: 320 g/ha, 3 weeks after application
Method in brief: as §1

[4] = system: rapeseed; test: Test Example 4: effect on crop by soil treatment (symbol g); settings: for Effect on crop grade, g: rapeseed: application herbicide amount 320 g/ha
Method in brief: (§3)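 Sterilized diluvial soil, spot sowing, ~1.5 cm soil cover; greenhouse 25–30° C.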

[5] = system: Echinochloa oryzacola Vasing.; test: Test Example 1: herbicidal activity, application before weed generation in submerged conditions (symbol A); settings: application herbicide amount 320 g/ha
Method in brief: (§4)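 Application before weed emergence: an aqueous dilution of the emulsion formulation was poured onto the surface of 4 cm-deep floodwater on the day of sowing. Effect was judged after 3 weeks (greenhouse, 25–30 °C).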

[6] = system: wheat; test: Test Example 4: effect on crop by soil treatment (symbol e); settings: for Effect on crop grade, e: wheat: application herbicide amount 320 g/ha
Method in brief: as §3

[7] = system: Lolium multiflorum Lam.; test: Test Example 5: herbicidal effect by foliage application, plastic box (symbol K); settings: 320 g/ha, 3 weeks after application
Method in brief: as §2

[8] = system: directly sowed rice plant; test: Test Example 3: effect on crop by foliage application, Wagner pot (symbol b); settings: application herbicide amount 320 g/ha; for b (directly sowed rice plant) effect on crop grade: Table 24
Method in brief: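 Steps: fill a 1/10000-are Wagner pot with alluvial soil; add water and mix to submerge at 0.1–0.5 cm depth; sow rice plus Echinochloa crus-galli var. crus-galli, Leptochloa chinensis and Cyperus difformis; grow in a 25–30 °C greenhouse.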

[9] = system: Echinochloa crus-galli var. crus-galli; test: Test Example 5: herbicidal effect by foliage application, plastic box (symbol H); settings: 320 g/ha, 3 weeks after application
Method in brief: as §2

[10] = system: soybean; test: Test Example 4: effect on crop by soil treatment (symbol d); settings: for Effect on crop grade, d: soybean: application herbicide amount 320 g/ha
Method in brief: as §3

[11] = system: wheat; test: Test Example 5: effect on crop by foliage application, plastic box (symbol e); settings: 320 g/ha, 3 weeks after application
Method in brief: as §1

[12] = system: Monochoria vaginalis; test: Test Example 1: herbicidal activity, application before weed generation in submerged conditions (symbol C); settings: application herbicide amount 320 g/ha
Method in brief: as §4

[13] = system: Digitaria ciliaris; test: Test Example 4: herbicidal effect by soil treatment (symbol F); settings: for Herbicidal effect grade, F: Digitaria ciliaris: application herbicide amount 320 g/ha
Method in brief: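 Seeds were sown in sterilized diluvial soil, covered with about 1.5 cm of soil, and the soil surface was sprayed with a water-diluted emulsion of the compound at a predetermined rate. Plants grew in a greenhouse at 25° C. to 30° C.; effects were scored visually 3 weeks after application.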

[14] = system: Galium spurium; test: Test Example 5: herbicidal effect by foliage application, plastic box (symbol Q); settings: 320 g/ha, 3 weeks after application
Method in brief: as §2

[15] = system: Veronica persica; test: Test Example 5: herbicidal effect by foliage application, plastic box (symbol R); settings: 320 g/ha, 3 weeks after application
Method in brief: as §2

[16] = system: Chenopodium album; test: Test Example 5: herbicidal effect by foliage application, plastic box (symbol O); settings: 320 g/ha, 3 weeks after application
Method in brief: as §2

SMILES	d: soybean, effect on crop grade [1]	N: Amaranthus retroflexus, herbicidal effect grade [2]	f: beet, effect on crop grade [3]	Effect on crop grade, g: rapeseed [4]	A (Echinochloa oryzacola Vasing.) herbicidal effect grade [5]	Effect on crop grade, e: wheat [6]	K: Lolium multiflorum Lam., herbicidal effect grade [7]	b (directly sowed rice plant) effect on crop grade [8]	H: Echinochloa crus-galli var. crus-galli, herbicidal effect grade [9]	Effect on crop grade, d: soybean [10]	e: wheat, effect on crop grade [11]	C (Monochoria vaginalis) herbicidal effect grade [12]	Herbicidal effect grade, F: Digitaria ciliaris [13]	Q: Galium spurium, herbicidal effect grade [14]	R: Veronica persica, herbicidal effect grade [15]	O: Chenopodium album, herbicidal effect grade [16]	also measured
CC#Cc1cc(C)c(C2=C(O)CC(CC(C)=NOCC(F)(F)F)C2=O)c(C)c1 (stereo not shown) [9-011]	2 (Herbicidal ratio of 20% or higher and lower than 40%)	2 (Herbicidal ratio of 20% or higher and lower than 40%)	0 (Herbicidal ratio of 5% or lower (almost no effect))	4 (Herbicidal ratio of 70% or higher and lower than 90%)	5 (Herbicidal ratio of 90% or more (almost completely withered))	4 (Herbicidal ratio of 70% or higher and lower than 90%)	5 (Herbicidal ratio of 90% or more (almost completely withered))	5 (Herbicidal ratio of 90% or more (almost completely withered))	5 (Herbicidal ratio of 90% or more (almost completely withered))	0 (Herbicidal ratio of 5% or lower (almost no effect))	5 (Herbicidal ratio of 90% or more (almost completely withered))	4 (Herbicidal ratio of 70% or higher and lower than 90%)	5 (Herbicidal ratio of 90% or more (almost completely withered))	1 (Herbicidal ratio of 5% or higher and lower than 20%)	3 (Herbicidal ratio of 40% or higher and lower than 70%)	1 (Herbicidal ratio of 5% or higher and lower than 20%)	–
CC(CC1CC(O)=C(c2c(C)cc(C)cc2C)C1=O)=NOCC(N)=O (stereo not shown) [1-124]	–	–	–	–	–	–	–	–	–	–	–	–	–	–	–	–	d: soybean, effect on crop (criteria 0-5) [1]: 0 (Herbicidal ratio of 5% or lower (almost no effect)); N: Amaranthus retroflexus, herbicidal effect (criteria 0-5) [2]: 0 (Herbicidal ratio of 5% or lower (almost no effect)); f: beet, effect on crop (criteria 0-5) [3]: 0 (Herbicidal ratio of 5% or lower (almost no effect)); g: rapeseed, effect grade on crop ([4]; 320 g/ha): 0 (Herbicidal ratio of 5% or lower (almost no effect)); Herbicidal effect grade, A: Echinochloa oryzacola Vasing. [5]: 1 (Herbicidal ratio of 5% or higher and lower than 20%); e: wheat, effect grade on crop ([6]; 320 g/ha): 0 (Herbicidal ratio of 5% or lower (almost no effect)); K: Lolium multiflorum Lam., herbicidal effect (criteria 0-5) [7]: 4 (Herbicidal ratio of 70% or higher and lower than 90%); effect on crop b (directly sowed rice plant), grade 0-5 [8]: 5 (Herbicidal ratio of 90% or more (almost completely withered)); H: Echinochloa crus-galli var. crus-galli, herbicidal effect (criteria 0-5) [9]: 5 (Herbicidal ratio of 90% or more (almost completely withered)); d: soybean, effect grade on crop ([10]; 320 g/ha): 0 (Herbicidal ratio of 5% or lower (almost no effect)); e: wheat, effect on crop (criteria 0-5) [11]: 3 (Herbicidal ratio of 40% or higher and lower than 70%); Herbicidal effect grade, C: Monochoria vaginalis [12]: 0 (Herbicidal ratio of 5% or lower (almost no effect)); F: Digitaria ciliaris, herbicidal effect grade ([13]; 320 g/ha): 0 (Herbicidal ratio of 5% or lower (almost no effect)); Q: Galium spurium, herbicidal effect (criteria 0-5) [14]: 0 (Herbicidal ratio of 5% or lower (almost no effect)); R: Veronica persica, herbicidal effect (criteria 0-5) [15]: 0 (Herbicidal ratio of 5% or lower (almost no effect)); O: Chenopodium album, herbicidal effect (criteria 0-5) [16]: 3 (Herbicidal ratio of 40% or higher and lower than 70%)
CC(CC1CC(OC(=O)COc2ccccc2)=C(c2c(C)cc(-n3cc(Cl)cn3)cc2C)C1=O)=NOCC(F)(F)F (stereo not shown) [9-012]	1 (Herbicidal ratio of 5% or higher and lower than 20%)	4 (Herbicidal ratio of 70% or higher and lower than 90%)	0 (Herbicidal ratio of 5% or lower (almost no effect))	0 (Herbicidal ratio of 5% or lower (almost no effect))	5 (Herbicidal ratio of 90% or more (almost completely withered))	0 (Herbicidal ratio of 5% or lower (almost no effect))	5 (Herbicidal ratio of 90% or more (almost completely withered))	5 (Herbicidal ratio of 90% or more (almost completely withered))	5 (Herbicidal ratio of 90% or more (almost completely withered))	0 (Herbicidal ratio of 5% or lower (almost no effect))	2 (Herbicidal ratio of 20% or higher and lower than 40%)	2 (Herbicidal ratio of 20% or higher and lower than 40%)	5 (Herbicidal ratio of 90% or more (almost completely withered))	4 (Herbicidal ratio of 70% or higher and lower than 90%)	3 (Herbicidal ratio of 40% or higher and lower than 70%)	2 (Herbicidal ratio of 20% or higher and lower than 40%)	–
COCCON=C(C)CC1CC(O)=C(c2c(C)cc(Br)cc2C)C1=O (stereo not shown) [9-017]	0 (Herbicidal ratio of 5% or lower (almost no effect))	0 (Herbicidal ratio of 5% or lower (almost no effect))	0 (Herbicidal ratio of 5% or lower (almost no effect))	0 (Herbicidal ratio of 5% or lower (almost no effect))	4 (Herbicidal ratio of 70% or higher and lower than 90%)	0 (Herbicidal ratio of 5% or lower (almost no effect))	5 (Herbicidal ratio of 90% or more (almost completely withered))	5 (Herbicidal ratio of 90% or more (almost completely withered))	5 (Herbicidal ratio of 90% or more (almost completely withered))	0 (Herbicidal ratio of 5% or lower (almost no effect))	3 (Herbicidal ratio of 40% or higher and lower than 70%)	0 (Herbicidal ratio of 5% or lower (almost no effect))	4 (Herbicidal ratio of 70% or higher and lower than 90%)	0 (Herbicidal ratio of 5% or lower (almost no effect))	0 (Herbicidal ratio of 5% or lower (almost no effect))	0 (Herbicidal ratio of 5% or lower (almost no effect))	–
